This is an account of results in publication PMC9139161, “Phenolics from Chrozophora oblongifolia Aerial Parts as Inhibitors of α-Glucosidases and Advanced Glycation End Products: In-Vitro Assessment, Molecular Docking and Dynamics Studies” (Biology, 2022).

Assay [1] has as its target T1, α-Glucosidase from Saccharomyces cerevisiae (Saccharomyces cerevisiae, UniProt P53341).
T1 construct: purchased Sigma-Aldrich G003
Description: α-Glucosidase inhibition (pNPG colorimetric). The assay is classed as biochemical. How it is done:
α-Glucosidase from Saccharomyces cerevisiae (Sigma-Aldrich, St. Louis, MO, USA cat#G003) was used in this assay. Solutions of the different compounds were prepared in 1000 µM final concentrations in dimethyl sulfoxide (DMSO). Compounds that exceeded 50% inhibition at this concentration were serially diluted to determine their half-maximal inhibitory concentration (IC50).
Briefly, 25 μL of samples/blank were incubated for 10 min at 37 °C with 50 μL of α-glucosidase (0.6 U/mL) in phosphate buffer (0.1 M, pH 7) in 96-microwell plates. The mixture was then incubated at 37 °C for 5 min with 25 μL of 3 mM pNPG in phosphate buffer (pH 7). A microplate reader (TECAN, Männedorf, Switzerland) was used to measure p-nitrophenol release from pNPG substrate at 405 nm to determine enzyme activity. Then, % α-glucosidase inhibition was estimated.

Assay [2] concerns advanced glycation end products (AGEs) formation, BSA-methylglyoxal model. Description: AGEs formation inhibition, BSA-methylglyoxal assay. The assay is classed as biochemical. The following applies: AGEs fluorescence, 72 h, 37 °C; read-out: BSA-Methylglyoxal Model IC50 (Mean ± SE). How it is done: The isolated compounds were prepared at final concentrations of 500 µM in DMSO in the BSA-fructose assay, and 1000 µM in all other AGEs assays. Compounds that exceeded 50% inhibition at this concentration were serially diluted to determine their IC50. All tests were conducted using quercetin (positive control).
AGEs inhibitory activity of the isolated compounds was determined according to the reported procedures with slight modification. Briefly, in black 96-microwell plates, samples were incubated for 72 h at 37 °C in the dark with bovine serum albumin (BSA, 50 mg/mL) (in 200 mM phosphate buffer, pH 7.4, with 0.02% sodium azide) and methyl-glyoxal (53.3 mM, in distilled water), (1:1:1 v/v/v). On a microplate reader (Fluostar Omega/BMG Labtech/Germany), fluorescent AGEs were detected using excitation and emission wavelengths of 355 nm and 460 nm, respectively. Triplicates of all experiments were performed.

The nature of assay [3]: Ferric reducing antioxidant power (FRAP) assay. The conditions noted are these: ascorbic acid equivalents; mean ± SD, n = 3. How it is done:
Isolated compounds were dissolved in DMSO to prepare a 0.5 mg/mL concentration, meanwhile, the positive control (ascorbic acid) was used to prepare a stock solution of 1000 µM in water; from which seven concentrations were prepared including 15.625, 31.25, 62.5, 125, 250 and 500 µM to construct the dose-response curve. The method of the assay depends on the reduction of Fe^3+ to Fe^2+, which is chelated by 2,4,6-tris(2-pyridyl)-s-triazine (TPTZ) to form Fe^2+-TPTZ complex which is known as FRAP (ferric reducing antioxidant power). Briefly, 190 μL of FRAP reagent (300 mM sodium acetate buffer pH 3.6, 10 mM TPTZ, and 20 mM ferric chloride, (10:1:1)) was incubated in the dark with 10 μL of the isolated compound in a 96-well plate for 30 min at 37 °C and absorbance was determined at 620 nm using microplate reader (Tecan, San Jose, CA, USA). Data are represented as means (n = 3) ± SD and the antioxidant effect of the extract was calculated as µM Ascorbic acid equivalents by substitution in the linear regression equation (Supplementary Figure S3).

Assay [4] in a line: Metal chelation assay (ferrozine). The conditions noted are these: EDTA equivalents; mean ± SD. As for the experimental part: Isolated compounds were dissolved in DMSO to prepare a concentration of 0.5 mg/mL, meanwhile, the positive control (EDTA) was used to prepare a stock solution of 100 µM in water; from which six concentrations were prepared including 5, 10, 20, 40, 50 and 80 µM to construct the dose-response curve. The assay was carried out as previously reported, with minor modifications. Briefly, in 96 wells plate (n = 6) 20 µL of the freshly prepared ferrous sulfate (0.3 mM) was mixed with 50 µL of the tested compound and incubated with 30 µL of ferrozine (0.8 mM) for 10 min at room temperature. Finally, reduction in color intensity was assessed at 540 nm using a microplate reader (Tecan, San Jose, CA, USA). Data are represented as means (n = 3) ± SD and the antioxidant effect of the extracts was calculated as µM EDTA equivalents by substitution in the linear regression equation (Supplementary Figure S4).

Assay [5] is described as follows: Oxygen radical absorbance capacity (ORAC) assay. The conditions noted are these: Trolox equivalents. How it is done: Isolated compounds were dissolved in DMSO to prepare a concentration of 0.25 mg/mL, meanwhile, the positive control (Trolox) was used to prepare a stock solution of 1 mM in MeOH; from which nine concentrations were prepared including 400, 300, 200, 150, 100, 75, 50, 25, and 12.5 µM to construct the dose-response curve. The assay was carried out as previously reported, with minor modifications. Briefly, 12.5 µL of the prepared sample(s) were incubated with 75 µL fluoresceine (10 nM) for 30 min at 37 °C. Measuring fluorescence was performed (520 EM, 485 EX, nm) for 3 cycles (90 s cycle time) for background measurement (Supplementary Figure S5). Subsequently, to each well, freshly-made AAPH (2,2′-azobis(2-amidinopropane) dihydrochloride) (12.5 µL, 240 mM) was immediately added. Measuring fluorescence (520 EM, 485 EX, nm) was maintained (90 s × 85 cycles) for 2.5 h (Supplementary Figure S5). The antioxidant potential (µM trolox equivalents) was estimated by substituting in the linear-regression equation.

[6] abbreviates: Saccharomyces cerevisiae enzyme, pNPG substrate, read-out: α-Glucosidase assay IC50 (Mean ± SE).

Structures are written as SMILES. Values joined by “and” are separate entries in the source; they are usually repeats but may differ in a detail not shown here. Identical values can stand only once. Like-named read-outs stand apart in the source and are kept apart here. Some results are limits rather than exact numbers.

T1 sequence (P53341 whole entry): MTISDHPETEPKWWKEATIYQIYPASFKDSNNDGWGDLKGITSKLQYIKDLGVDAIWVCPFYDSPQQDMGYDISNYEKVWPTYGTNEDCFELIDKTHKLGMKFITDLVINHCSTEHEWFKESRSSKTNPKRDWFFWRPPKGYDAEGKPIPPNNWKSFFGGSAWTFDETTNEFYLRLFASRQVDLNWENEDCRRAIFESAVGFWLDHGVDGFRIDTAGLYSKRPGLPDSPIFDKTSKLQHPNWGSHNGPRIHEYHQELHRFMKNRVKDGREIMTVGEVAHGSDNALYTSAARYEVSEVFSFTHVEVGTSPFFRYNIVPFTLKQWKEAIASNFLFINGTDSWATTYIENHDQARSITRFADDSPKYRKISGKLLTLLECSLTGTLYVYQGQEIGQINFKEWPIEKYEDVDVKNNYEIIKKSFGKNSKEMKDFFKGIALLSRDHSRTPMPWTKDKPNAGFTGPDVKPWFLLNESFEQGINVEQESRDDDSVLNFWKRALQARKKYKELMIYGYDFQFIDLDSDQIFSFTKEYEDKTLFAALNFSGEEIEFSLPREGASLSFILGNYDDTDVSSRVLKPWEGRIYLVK

By IC50 is commonly meant the concentration at which inhibition is half-maximal. Consider `O=C(OC[C@H]1O[C@H](OC(=O)c2cc(O)c(O)c(O)c2)[C@H](O)[C@@H](OC(=O)c2cc(O)c(O)c(O)c2)[C@@H]1O)c1cc(O)c(O)c(O)c1` (stereo in doubt) [Compound 5, 1,3,6-trigalloyl glucose], for which the figures for the IC50 in assay [1] (setting [6]) and in assay [2] were 4.5 µM and 657 µM, respectively. Moreover, the FRAP in assay [3] is 7.228±0.279 mM AAE/mg and 7.23 mM AAE/mg. The Metal chelation in assay [4] is 17.52±2.43 µM EDTA eq/mg and 17.52 µM EDTA eq/mg. Besides, in assay [5], the ORAC assay was 1.119±0.116 mM TE/mg and 1.11 mM TE/mg.
`O=c1cc(-c2ccc(O)cc2)oc2cc(O[C@@H]3O[C@H](CO)[C@@H](O)[C@H](O)[C@H]3O)cc(O)c12` [Compound 1, apeginin-7-O-β-D-glucoside]: the IC50 amounted to 408 µM in assay [1] and 668 µM in assay [2]. For the same compound, the FRAP in assay [3] was 0.225±0.003 mM AAE/mg and 0.23 mM AAE/mg. Moreover, the Metal chelation in assay [4] was 19.26±1.52 µM EDTA eq/mg and 19.26 µM EDTA eq/mg. The ORAC assay in assay [5] is 1.092±0.067 mM TE/mg and 1.09 mM TE/mg.
For the compound `O=C(O)[C@H]1O[C@@H](Oc2c(-c3ccc(O)c(O)c3)oc3cc(O)cc(O)c3c2=O)[C@H](O)[C@@H](O)[C@@H]1O` [Compound 2, quercetin-3-O-β-D-glucuronic acid], the IC50 in assay [1] (setting [6]) was 545 µM; in assay [2] it was 1880 µM. Further, the FRAP in assay [3] is 0.727±0.021 mM AAE/mg and 0.73 mM AAE/mg. Besides, in assay [4], the Metal chelation is 8.29±0.05 µM EDTA eq/mg and 8.29 µM EDTA eq/mg. For the same compound, in assay [5], the ORAC assay is 0.739±0.098 mM TE/mg and 0.74 mM TE/mg.
Take `O=C(O)[C@H]1O[C@@H](Oc2c(-c3ccc(O)c(O)c3)oc3cc(O)cc(O)c3c2=O)[C@H](O)[C@@H](O)[C@H]1O` [Compound 3, quercetin-3-O-β-D-galacturonic acid]: the results for the IC50 in assay [1] (setting [6]) and in assay [2] were 385 µM and greater than 1200 µM, respectively. Further, the FRAP in assay [3] is 0.494±0.066 mM AAE/mg and 0.49 mM AAE/mg. Besides, the Metal chelation in assay [4] was 28.26±0.78 µM EDTA eq/mg and 28.26 µM EDTA eq/mg. Also, in assay [5], the ORAC assay was 0.538±0.015 mM TE/mg and 0.54 mM TE/mg.
Consider `C[C@@H]1O[C@@H](OC[C@H]2O[C@@H](Oc3c(-c4ccc(O)c(O)c4)oc4cc(O)cc(O)c4c3=O)[C@H](O)[C@@H](O)[C@@H]2O)[C@H](O)[C@H](O)[C@H]1O` [Compound 4, rutin], for which the IC50 in assay [1] came out at 754 µM; in assay [2], 493 µM. The FRAP in assay [3] is 2.658±0.168 mM AAE/mg and 2.66 mM AAE/mg. In addition, in assay [4], the Metal chelation is 28.96±2.07 µM EDTA eq/mg and 28.96 µM EDTA eq/mg. In assay [5], the ORAC assay was 2.164±0.096 mM TE/mg and 2.16 mM TE/mg.
